Assay results published in patent publication US11160797B2, “Pyridinone derivatives and their use as selective ALK-2 inhibitors” (NOVARTIS AG, priority 2017, dated 2021).

Legend:
[1] = biological target: T1, wild-type ALK2 (aa172-499) (Homo sapiens (Human), UniProt Q04771); test: ADPGlo biochemical autophosphorylation assay, ALK2; settings: 15 uM ATP
ALK3 (aa198-525) = ALK3 (aa198-525) (Homo sapiens (Human), UniProt P36894); test: ADPGlo biochemical autophosphorylation assay, ALK3; settings: 15 uM ATP
ALK3 (aa198-525), sequence (P36894 198-525): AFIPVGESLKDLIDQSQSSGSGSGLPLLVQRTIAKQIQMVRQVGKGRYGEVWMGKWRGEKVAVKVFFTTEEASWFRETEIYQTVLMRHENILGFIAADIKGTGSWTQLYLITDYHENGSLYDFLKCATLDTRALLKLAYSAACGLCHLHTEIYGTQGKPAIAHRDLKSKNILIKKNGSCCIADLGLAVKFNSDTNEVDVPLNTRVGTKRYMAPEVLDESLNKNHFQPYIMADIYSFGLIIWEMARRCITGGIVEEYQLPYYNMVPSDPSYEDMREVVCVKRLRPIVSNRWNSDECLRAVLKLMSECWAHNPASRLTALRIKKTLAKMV

[2] = biological target: T1, wild-type ALK2 (aa172-499); test: Caliper biochemical peptide phosphorylation assay, ALK2; settings: Caliper peptide phosphorylation, 15 uM ATP; read-out: ALK2 IC50
[3] = biological target: ALK2 FOP mutant (aa172-499 R206H) (Homo sapiens (Human), UniProt Q04771, R206H); test: Caliper biochemical peptide phosphorylation assay, ALK2 FOP; settings: Caliper peptide phosphorylation, R206H, 15 uM ATP; read-out: ALK2 FOP EPK IC50
ALK2 FOP mutant (aa172-499 R206H), sequence (Q04771 172-499 R206H): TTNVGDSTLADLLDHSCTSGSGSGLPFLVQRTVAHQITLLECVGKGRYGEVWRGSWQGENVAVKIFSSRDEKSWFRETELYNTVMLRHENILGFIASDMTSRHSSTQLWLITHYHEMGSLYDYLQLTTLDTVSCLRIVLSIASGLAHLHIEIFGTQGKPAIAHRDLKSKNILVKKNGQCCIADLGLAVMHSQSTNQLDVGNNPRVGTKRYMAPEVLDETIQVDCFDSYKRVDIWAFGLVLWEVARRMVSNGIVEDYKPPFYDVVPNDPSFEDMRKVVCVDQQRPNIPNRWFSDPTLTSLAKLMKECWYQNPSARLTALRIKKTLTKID

ALK1 (aa166-493) = ALK1 (aa166-493) (Homo sapiens (Human), UniProt P37023); test: Caliper biochemical peptide phosphorylation assay, ALK1; settings: 15 uM ATP
ALK1 (aa166-493), sequence (P37023 166-493): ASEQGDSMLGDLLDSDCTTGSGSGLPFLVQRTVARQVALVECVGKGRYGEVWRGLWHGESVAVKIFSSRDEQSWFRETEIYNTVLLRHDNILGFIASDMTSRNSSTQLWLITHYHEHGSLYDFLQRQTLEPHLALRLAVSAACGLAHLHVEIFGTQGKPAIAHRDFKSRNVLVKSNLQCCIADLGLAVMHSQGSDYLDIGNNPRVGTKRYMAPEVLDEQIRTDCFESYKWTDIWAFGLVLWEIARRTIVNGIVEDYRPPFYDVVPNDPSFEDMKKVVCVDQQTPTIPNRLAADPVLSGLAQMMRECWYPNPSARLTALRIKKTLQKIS

ALK5 (aa162-503) = ALK5 (aa162-503) (Homo sapiens (Human), UniProt P36897); test: Caliper biochemical peptide phosphorylation assay, ALK5; settings: 15 uM ATP
ALK5 (aa162-503), sequence (P36897 162-503): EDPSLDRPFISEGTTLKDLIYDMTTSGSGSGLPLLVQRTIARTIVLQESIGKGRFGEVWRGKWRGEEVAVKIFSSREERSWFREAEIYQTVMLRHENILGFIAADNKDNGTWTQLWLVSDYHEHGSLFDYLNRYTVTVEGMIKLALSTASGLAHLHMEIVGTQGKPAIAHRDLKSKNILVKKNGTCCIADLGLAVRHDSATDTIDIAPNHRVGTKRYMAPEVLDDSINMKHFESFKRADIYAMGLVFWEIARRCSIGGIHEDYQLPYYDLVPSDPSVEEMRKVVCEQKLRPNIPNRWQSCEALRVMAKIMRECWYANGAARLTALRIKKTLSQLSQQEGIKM
Description: For all biochemical assays, human recombinant proteins were expressed in and purified from baculo virus transfected insect cells. The constructs comprised the GS-domain and kinase domain of wild-type ALK2 (aa172-499), ALK2 FOP mutant (aa172-499 R206H), ALK3 (aa198-525), ALK5 (aa162-503) and ALK6 (aa168-495).
A kinase selectivity panel which measures substrate peptide phosphorylation was set-up for wild-type ALK2 (aa172-499), ALK2 FOP mutant (aa172-499 R206H), ALK1 (aa166-493), ALK5 (aa162-503) and ALK6 (aa168-495). The technology used for the described assay is based on the separation and quantification of substrate and product in an electrical field. In the course of the kinase reaction the peptide substrate is phosphorylated by a kinase. […] Due to this difference in charge the phosphorylated und unphosphorylated peptides migrate with different velocities in an electrical field.
In the applied method, this separation takes place inside a chip that contains a complex capillary system for simultaneous analysis of 12 samples (“LabChip EZ Reader 12-sipper chip”, Caliper Technologies Corp., Mountain View, USA). In order to allow the detection and quantification of the peptides in the capillary system, the peptides carry a fluorescent label (fluorescein). With this label the peptides can be quantified by fluorescence intensity through the instruments laser and detection system (LC3000, Caliper Life Sciences).
The assays were performed in 384-well, low volume microtiter assay plates in a final reaction volume of 9 ul. Dose-response curves were generated by incubating 10 nM of each kinase together with 2 uM of the fluorescently labeled substrate peptide 5-Fluo-Ahx-[…]-T-[…]-amid (10 mM stock solution in DMSO) in 50 mM Hepes pH 7.5, 0.02% Tween 20, 0.02% BSA, 1 mM DTT, 10 uM Na3VO4, 10 mM ß-Glycerolphosphate, 1 mM MgCl2, 12 mM MnCl2 (ALK1 and ALK6 7 mM) and 15 uM ATP for 60 min at 30° C. in the presence or absence of compound diluted in DMSO.
Kinase reactions were terminated by adding 15 ul STOP buffer (100 mM HEPES pH 7.5, 5% DMSO, 0.1% Caliper coating reagent, 10 mM EDTA, and 0.015% Brij35.
Plates with terminated kinase reactions were transferred to the Caliper LC3000 workstation (Caliper Technologies Corp., Mountain View, USA) for reading. The relative amount of phosphorylated peptide r, was calculated using the heights of the substrate peak, s, and the product peak, p:r=p/(p+s).
IC50 values for a given antagonist correspond to the compound concentration needed to inhibit half of the maximum signal of the kinase reaction.

ALK6 (aa168-495) = ALK6 (aa168-495) (Homo sapiens (Human), UniProt O00238); test: Caliper biochemical peptide phosphorylation assay, ALK6; settings: 15 uM ATP
ALK6 (aa168-495), sequence (O00238 168-495): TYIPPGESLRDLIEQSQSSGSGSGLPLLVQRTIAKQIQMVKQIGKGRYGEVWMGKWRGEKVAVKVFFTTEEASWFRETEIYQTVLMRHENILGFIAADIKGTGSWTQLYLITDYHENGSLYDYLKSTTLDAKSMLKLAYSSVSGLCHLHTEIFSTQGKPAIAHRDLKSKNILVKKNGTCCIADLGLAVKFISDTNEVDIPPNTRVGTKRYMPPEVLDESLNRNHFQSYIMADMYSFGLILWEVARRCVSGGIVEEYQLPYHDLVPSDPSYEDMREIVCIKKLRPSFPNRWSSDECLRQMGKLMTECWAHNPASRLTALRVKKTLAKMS

[4] = tested on: HuH7 cells, BMP response element (BRE) luciferase reporter, BMP6 stimulated; test: BMP signaling reporter gene assay; format: cell-based; settings: Homo sapiens, Huh-7; BMP6 100 ng/ml; read-out: MSD HuH7 cell BMP reporter IC50

T1 sequence (Q04771 172-499): as the sequence (Q04771 172-499 R206H) above, with H35R counted along it

Compound	IC50 [1]	IC50 (ALK3 (aa198-525))	IC50 [2]	IC50 [3]	IC50 (ALK1 (aa166-493))	IC50 (ALK5 (aa162-503))	IC50 (ALK6 (aa168-495))	IC50 [4]
CN1C(=O)Cc2cc(-c3cncc(-c4ccc(=O)n(CCC(F)(F)F)c4)c3)ccc21 [Example 16, 1-methyl-5-(6′-oxo-1′-(3,3,3-trifluoropropyl)-1′,6′-dihydro-[3,3′-bipyridin]-5-yl)indolin-2-one]	1100 nM	15000 nM	820 nM	830 nM	8700 nM	> 10000 nM	> 10000 nM	1200 nM
CC(C)CCn1cc(-c2cncc(-c3ccc4c(c3)CC(=O)N4C)c2)ccc1=O [Example 17, 5-(1′-isopentyl-6′-oxo-1′,6′-dihydro-[3,3′-bipyridin]-5-yl)-1-methylindolin-2-one]	1100 nM	> 15100 nM	920 nM	910 nM	7000 nM	> 10000 nM	> 10000 nM	1200 nM
CN1C(=O)Cc2cc(-c3cncc(-c4ccc(=O)n(C5CCCCO5)c4)c3)ccc21 (stereo not shown) [Example 18, 1-methyl-5-(6′-oxo-1′-(tetrahydro-2H-pyran-2-yl)-1′,6′-dihydro-[3,3′-bipyridin]-5-yl)indolin-2-one]	1000 nM	> 15100 nM	710 nM	600 nM	4700 nM	> 10000 nM	> 10000 nM	420 nM
CN1C(=O)Cc2cc(-c3cncc(-c4ccc(=O)n(C)c4)c3)ccc21 [Example 19, 1-methyl-5-(1′-methyl-6′-oxo-1′,6′-dihydro-[3,3′-bipyridin]-5-yl)indolin-2-one]	2200 nM	5400 nM	740 nM	810 nM	4200 nM	> 10000 nM	9300 nM	1900 nM
CC(C)N1C(=O)Cc2cc(-c3cncc(-c4ccc(=O)n(C(C)C)c4)c3)ccc21 [Example 21, 1-Isopropyl-5-(1′-isopropyl-6′-oxo-1′,6′-dihydro-[3,3′-bipyridin]-5-yl)indolin-2-one]	64 nM	570 nM	60 nM	53 nM	360 nM	1800 nM	720 nM	60 nM
CCC1C(=O)N(C)c2ccc(-c3cncc(-c4ccc(=O)n(C(C)C)c4)c3)cc21 (stereo not shown) [Example 22, 3-Ethyl-5-(1′-isopropyl-6′-oxo-1′,6′-dihydro-[3,3′-bipyridin]-5-yl)-1-methylindolin-2-one]	725 nM	4200 nM	390 nM	340 nM	2170 nM	> 10000 nM	2770 nM	540 nM
CC(C)n1cc(-c2cncc(-c3ccc4c(c3)C(F)(F)C(=O)N4C)c2)ccc1=O [Example 23, 3,3-Difluoro-5-(1′-isopropyl-6′-oxo-1′,6′-dihydro-[3,3′-bipyridin]-5-yl)-1-methylindolin-2-one]	1200 nM	5800 nM	670 nM	870 nM	5600 nM	> 10000 nM	4500 nM	1200 nM

More lines, now with the values ahead:

IC50 [1]	IC50 (ALK3 (aa198-525))	IC50 [2]	IC50 [3]	IC50 (ALK1 (aa166-493))	IC50 (ALK5 (aa162-503))	IC50 (ALK6 (aa168-495))	IC50 [4]	Compound
67 nM	300 nM	70 nM	60 nM	420 nM	1900 nM	800 nM	60 nM	CC(C)CN1C(=O)Cc2cc(-c3cncc(-c4ccc(=O)n(C(C)C)c4)c3)ccc21 [Example 24, 1-Isobutyl-5-(1′-isopropyl-6′-oxo-1′,6′-dihydro-[3,3′-bipyridin]-5-yl)indolin-2-one]
100 nM	490 nM	80 nM	70 nM	540 nM	1500 nM	1000 nM	90 nM	CCCN1C(=O)Cc2cc(-c3cncc(-c4ccc(=O)n(C(C)C)c4)c3)ccc21 [Example 25, 5-(1′-Isopropyl-6′-oxo-1′,6′-dihydro-[3,3′-bipyridin]-5-yl)-1-propylindolin-2-one]
350 nM	2400 nM	190 nM	230 nM	1300 nM	9300 nM	2900 nM	390 nM	CC(C)n1cc(-c2cncc(-c3cc(F)c4c(c3)CC(=O)N4C)c2)ccc1=O [Example 36, 7-Fluoro-5-(1′-isopropyl-6′-oxo-1′,6′-dihydro-[3,3′-bipyridin]-5-yl)-1-methylindolin-2-one]
290 nM	2500 nM	240 nM	240 nM	1700 nM	> 10000 nM	5400 nM	300 nM	CC(C)n1cc(-c2cncc(-c3cnc4c(c3)CCC(=O)N4C)c2)ccc1=O [Example 37, 6-(1′-Isopropyl-6′-oxo-1′,6′-dihydro-[3,3′-bipyridin]-5-yl)-1-methyl-3,4-dihydro-1,8-naphthyridin-2(1H)-one]
130 nM	540 nM	60 nM	60 nM	640 nM	3400 nM	1100 nM	100 nM	CC(C)n1cc(-c2cncc(-c3ccc4c(c3)CC(=O)N4CC3CCC3)c2)ccc1=O [Example 38, 1-(cyclobutylmethyl)-5-(1′-isopropyl-6′-oxo-1′,6′-dihydro-[3,3′-bipyridin]-5-yl)indolin-2-one]
94 nM	800 nM	100 nM	80 nM	900 nM	4200 nM	860 nM	100 nM	CCC(CC)CN1C(=O)Cc2cc(-c3cncc(-c4ccc(=O)n(C(C)C)c4)c3)ccc21 [Example 40, 1-(2-ethylbutyl)-5-(1′-isopropyl-6′-oxo-1′,6′-dihydro-[3,3′-bipyridin]-5-yl)indolin-2-one]
490 nM	6300 nM	470 nM	710 nM	6400 nM	> 10000 nM	> 10000 nM	630 nM	CC(C)n1cc(-c2cncc(-c3cnc4c(c3)CC(=O)N4)c2)ccc1=O [Example 41, 5-(1′-Isopropyl-6′-oxo-1′,6′-dihydro-[3,3′-bipyridin]-5-yl)-1H-pyrrolo[2,3-b]pyridin-2(3H)-one]
460 nM	3400 nM	190 nM	150 nM	1400 nM	5600 nM	3750 nM	310 nM	CC(C)n1cc(-c2cc(-c3ccc4c(c3)CC(=O)N4C)cnc2N)ccc1=O [Example 42, 5-(2-amino-1′-isopropyl-6′-oxo-1′,6′-dihydro-[3,3′-bipyridin]-5-yl)-1-methylindolin-2-one]
90 nM	600 nM	100 nM	90 nM	520 nM	1000 nM	2000 nM	120 nM	CC(C)n1cc(-c2nc(-c3ccc4c(c3)CC(=O)N4C)cnc2N)ccc1=O [Example 43, 5-(5-amino-6-(1-isopropyl-6-oxo-1,6-dihydropyridin-3-yl)pyrazin-2-yl)-1-methylindolin-2-one]
110 nM	1000 nM	90 nM	80 nM	670 nM	5700 nM	3050 nM	230 nM	CC(C)n1nc(-c2cncc(-c3ccc4c(c3)CC(=O)N4C)c2)ccc1=O [Example 44, 5-(5-(1-isopropyl-6-oxo-1,6-dihydropyridazin-3-yl)pyridin-3-yl)-1-methylindolin-2-one]
